Laboratory results taken from patent US12637469B2, “1H-pyrazole derivative and application thereof as dual target inhibitor of Syk and VEGFR2” (Ocumension Therapeutics (Suzhou) Co., Ltd., priority 2020, dated 2026).

Target: T1, Syk kinase (Homo sapiens, UniProt P43405)
T1 construct: purchased Invitrogen PV3857
Assay: In vitro inhibitory effect on Syk kinase (HTRF enzymatic experiment)
Format: biochemical
Details: ATP 2 μM, read-out: IC50 (nM) for inhibition of Syk enzyme
From the text: The interaction between the substrate and the enzyme was detected by HTRF, using the IC50 value of the compound as an indicator to evaluate the inhibitory effect of the compound on Syk kinase.
• Syk kinase (Invitrogen, PV3857) • DTT (Sigma #43815) • ATP (Sigma #A7699) • MgCl2 (Sigma #63020) • MnCl2 (Sigma #M1787) • EDTA (Invitrogen #15575-020) • HEPES Buffer (Invitrogen #15630-080) • HTRF® KinEASE™ TK (Cisbio #62TKOPEC, 20000 tests) • Low volume, 384-well, white polystyrene plate (Greiner #784075) • 384 Well Microplates (Greiner #781946) • Centrifuge (Eppendorf #5810R) • Pipette (Eppendorf) • Pipette (Greiner) • Pipette gun (Eppendorf) • Mutidorp Pipette • POD 810 Plate Assembler Automatic Microplate Pretreatment System • Envision Reader • Experimental Steps and Methods: • a) Compound dilution and plate-making: • 1) The compound powder was weighed, dissolved in a certain amount of DMSO at an initial concentration of 10 mM. • 2) The compound was diluted to a concentration of 0.74 mM, and plated with POD18, 135 nL per well, the starting compound concentration was 10 μM, and there were 11 concentration points, with 3-fold descending serial dilutions. • b) Enzyme-substrate reaction stage: • 1) Preparation and dilution of the experimental buffer: the 5×HTRF Buffer in the kit was diluted to 1×, and specified amounts of DTT and MgCl2 solutions were added for use. • 2) SYK enzyme reaction solution was prepared with 1×HTRF Buffer so that the final reaction concentration of SYK kinase was 0.0156 ng/μL. • 3) TK-Substrate-biotin/ATP mixture was prepared so that the final substrate concentration was controlled at 0.2 μM. ATP concentration was controlled at 2 μM. • 4) The solution and the mixture were added with a Mutidorp pipette, SYK enzyme solution and TK-Substrate-biotin/ATP mixture were each added 5 μL per well, and incubated with 23 solution for 1 hour. • c) Detection stage: • 1) 13.33 mL of ethylenediaminetetraacetic acid solution was added to the detection buffer of the kit, and specified amounts of Eu-labeled antibody and XL-665 were added to prepare the detection solution. • 2) The solution was added with a Mutidorp pipette, 10 μL of detection solution per well, and incubated with 23 solution for 1 hour. The reaction of the enzyme and substrate mixture was stopped. • 3) After centrifugation, the reading was obtained on Envision. • d) Data analyzation: the data was analyzed using XL-Fit and the IC50 value of the compound was calculated.

With c1cn2c(n1)c(Nc1ccc(N3CCOCC3)cc1)nc1ccc(-c3cn[nH]c3)cc12 [Compound 1] the IC50 was 15 nM.
